One series concerns β-adrenergic receptors. Kind of series: Isoproterenol-induced cAMP synthesis in rat C6 glioma (anti-inflammatory activity). It is filed as cell-based. Particulars: for Effect (modulation of isoproterenol-induced cAMP synthesis): added simultaneously with (−)-isoproterenol; for IC50: cellular cAMP by enzyme immunoassay, dose-response curve in duplicate, read-out: I50. On the procedure: Anti-inflammatory activity of several of the 2-substituted 6-benzylaminopurine riboside derivatives of this invention was determined; kinetin riboside was also evaluated as a control. Rat C6 glioma (ATCC No. CCL107) was cultivated in monolayer in serum-free chemically defined medium containing Ham's F10/minimal essential medium (1:1 v/v), 2 mM L-glutamine, 1% (v/v) minimal essential medium vitamins (100×), 1% (v/v) minimal essential medium nonessential amino acids (100×), 100 U/mL penicillin, […], and 30 nM sodium selenite. Incubation was performed at 37° C. in a humidified atmosphere. The assays were performed in the logaritmic growth phase at a density of 2.5×10^5 cells/cm^2.
Intracellular cAMP synthesis was induced by addition of 5 mM (−)-isoproterenol; various amounts of test compounds were added at the same time as the (−)-isoproterenol. After […] incubation at 37° C., the medium was removed and the cellular amount of cAMP was determined using the cAMP-enzyme immunoassay kit from Amersham. The I50 value was determined from a dose-response curve in duplicate. The effect of nine purine analogues was measured after simultaneous addition with isoproterenol.
As P2Y1-like and A2 purinergic receptors, negatively and positively coupled to adenylate cyclase respectively, are present on rat C6 glioma as to be determined if the modulation of the synthesis of cAMP is due to inhibition of the activation of β-adrenergic receptors by isoproterenol are due to activation of purinergic receptors.

Series [1] has as its system promyelocytic HL-60 leukemia. Kind of series: In vitro cytotoxicity, Calcein AM assay, HL60. It is filed as cell-based, human. From the text:
(§1) Low cytotoxicity of the compounds is the major property determining the cosmetic use. One of the parameters used, as the basis for cytotoxicity assays, is the metabolic activity of viable cells. For example, a microtiter assay, which uses the Calcein AM, is now widely used to quantitate cell proliferation and cytotoxicity. For instance, this assay is used in drug screening programs and in chemosensitivity testing. Because only metabolically active cells cleave Calcein AM, these assays detect viable cells exclusively. The quantity of […] Calcein AM corresponds to the number of vital cells in the culture.
(§2) Human T-lymphoblastic leukemia cell line CEM; promyelocytic HL-60 and monocytic U937 leukemias; breast carcinoma cell lines MCF-7, BT549, MDA-MB-231; glioblastoma U87MG cells; cervical carcinoma cells HELA; sarcoma cells U2OS and Saos2; hepatocellular carcinoma HepG2; mouse fibroblasts NIH3T3; mouse immortalized bone marrow macrophages B2.4 and B10A.4; P388D1 and L1210 leukemia; B16 and B16F10 melanomas; human osteosarcoma HOS; human myeloid leukemia K-562; human skin melanoma G-361 were used for routine screening of compounds. The cells were maintained in Nunc/Corning 80 cm^2 plastic tissue culture flasks and cultured in cell culture medium (DMEM with 5 g/l glucose, 2 mM glutamine, 100 U/mL penicillin, 100 μg/mL streptomycin, 10% fetal calf serum and sodium bicarbonate).
(§3) The cell suspensions that were prepared and diluted according to the particular cell type and the expected target cell density (2.500-30.000 cells per well based on cell growth characteristics) were added by pipette ([…]) into 96/well microtiter plates. Inoculates were allowed a pre-incubation period of 24 hours at 37° C. and 5% CO2 for stabilisation. Four-fold dilutions of the intended test concentration were added at time zero in 20 μl aliquots to the microtiter plate wells. Usually, the compound tested was evaluated at six 4-fold dilutions. In routine testing, the highest well concentration was 100 μM, but it can be the matter of change dependent on the agent. All drug concentrations were examined in duplicates. Incubations of cells with the tested compounds lasted for 72 hours at 37° C., in 5% CO2 atmosphere and 100% humidity. At the end of the incubation period, the cells were assayed by using Calcein AM. Ten microliters of the stock solution were pipetted into each well and incubated for 1 hour. Fluorescence (FD) was measured with the Labsystem FIA Reader Fluoroscan Ascent (UK). The tumour cell survival (GI50) was calculated using the following equitation: TCS=(FDdrug exposed well/mean FDeontrol wells)×100%. The GI50 value, the drug concentration lethal to 50% of the tumour cells, was calculated from the obtained dose response curves.
(§4) Zero cytotoxicity of the novel compounds is the basic prerequisite for agricultural and tumor-unrelated applications. The cytoxicity of the novel compounds was tested on a panel of cell lines of different histogenetic and species origin (Table 9). We show herein that equal activities were found in all tumour cell lines tested, however, the non-malignant cells, e.g. NIH3T3 fibroblasts and normal human lymphocytes, were resistant to 2,6-disubstituted purine ribosides induced cytotoxicity. The compounds listed in Tab. 9 can be divided into 2 groups. The first group contains “classical cytokinins” represented by 6-substituted purine ribosides (which are known in the prior art). The second group contains the novel 2,6-disubstituted derivatives of these compounds. […] GI50 for NIH3T3 fibroblasts and normal human lymphocytes was always higher than 100 μM. The novel derivatives show no toxicity to normal and tumour cells in concentrations about 100 μM and thus are more suitable for agricultural applications than “classical cytokinins” (6-substituted purine riboside derivatives).

The subject of series [2] is human skin melanoma G-361. Briefly: In vitro cytotoxicity, Calcein AM assay, G-361. It is filed as cell-based.
Text: as §1, §2, §3, §4

The next series relates to human osteosarcoma HOS. Kind of series: In vitro cytotoxicity, Calcein AM assay, HOS. It is filed as cell-based. To be noted: 72 hours.
Text: as §1, §2, §3, §4

The subject of series [3] is human myeloid leukemia K-562. Briefly: In vitro cytotoxicity, Calcein AM assay, K-562. The class given is cell-based.
Text: as §1, §2, §3, §4

For series [4], the system named is Human T-lymphoblastic leukemia cell line CEM. Briefly: In vitro cytotoxicity, Calcein AM assay, CEM. It is filed as cell-based. To be noted: 72 hours.
Text: as §1, §2, §3, §4

The test system of series [5] is breast carcinoma cell line MCF-7. Briefly: In vitro cytotoxicity, Calcein AM assay, MCF7. It is filed as cell-based, human.
Text: as §1, §2, §3, §4

For series [6], the system named is cytokinin-dependent tobacco callus Nicotiana tabacum L. cv. Wisconsin 38. Kind of series: Tobacco callus bioassay (stimulation of plant cell division). It is filed as cell-based. How it is done: Cytokinin-dependent tobacco callus Nicotiana tabacum L. cv. Wisconsin 38 was maintained at 25° C. in darkness on modified MS medium, containing per 1 liter: 4 μmol of nicotinic acid, 2.4 μmol of pyridoxine hydrochloride, 1.2 μmol of thiamine, 26.6 μmol of glycine, 1.37 μmol of glutamine, 1.8 μmol of myo-inositol, 30 g of sucrose, 8 g of agar, 5.37 μmol of NAA and 0.5 μmol of the compound tested. Subcultivation was carried out every three weeks. Fourteen days before the bioassay, the callus tissue was transferred to the media without the compound tested. The biological activity was determined from the increase of the fresh callus weight after four weeks of cultivation. Five replicates were prepared for each concentration of the compound tested and the entire test was repeated twice. From the obtained data, the concentration with the highest activity was selected for each compound tested. Relative activity of the compound at this concentration was calculated (Table 8). The compounds to be tested were dissolved in dimethylsulfoxide (DMSO) and the solution brought up to 10^−3M with distilled water. […] The compounds listed in Table 8 are compared to a “classical cytokinin” kinetin riboside (compound known in the prior art—C=control).

Series [7] in a line: Solubility noted on isolation of the product. It is filed as physicochemical. Particulars: qualitative, solvent as stated. How it is done: 2-Benzylmercapto-6-(2-hydroxy-3-methoxybenzylamino)purine riboside (1.18 g) was dissolved in liquid ammonia (125 mL) to yield a clear yellow solution. […]. Sodium was added in small portions until the blue colouration persisted for 15 mins A small amount of solid ammonium chloride was added cautiously to remove excess Na. The ammonia was evaporated to a small volume on a hot plate and ether (125 mL) added (to remove bibenzyl formed as a by-product). After most of the remaining ammonia had been evolved the ether extract was extracted with water (2×65 mL). The aqueous extrakt (at pH 12 to 13) was adjusted to 5 with AcOH cooling to below 10 on dry ice. A creamy solid precipitated. The solid was filtered, washed thoroughly with water and dried overnight over calcium chloride to yield a virtually white, very light powder. Yield: 760 mg. 2-Mercapto-6-(2-hydroxy-3-methoxybenzylamino)purine riboside gives a sharp, symmetrical peak on HPLC (300 nm) and moves readily on TLC in MeOH/chloroform mixtures. […] EtOH solution develops strong yellow colour on standing at room temperature for several days.
2-Methylmercapto-6-chloropurine riboside (3.3 g, 10 mmol) was refluxed with 2-hydroxy-3-methoxybenzylamine ([…], 12 5 mmol) in butanol (100 mL) containing triethylamine (3.2 mL) for 2 h. The butanol was removed under vacuum at 50 to 60° C. […]

SMILES strings stand for the structures.

This is an account of results in patent publication US20140066394A1, “Substituted 6-(Benzylamino) Purine Riboside Derivatives, Use Thereof and Compositions Containing These Derivatives” (Biopatterns, S.R.O, priority 2009, published 2014).

One may read the GI50 as the concentration at which growth is held to half of that of the control. As for `OC[C@H]1O[C@@H](n2cnc3c(NCc4cc(Cl)ccc4O)nc(Cl)nc32)[C@H](O)[C@@H]1O` [Compound 29, 2-Chloro-6-(2-hydroxy-5-chlorobenzylamino)purine riboside], the “Effect (modulation of isoproterenol-induced cAMP synthesis)” value in the series on β-adrenergic receptors was “inhibition”. In addition, the IC50 on β-adrenergic receptors turned out to be 12.4 ± 2 µM. The GI50 (in series [1] (72 hours); in series [2] (72 hours); in the series with human osteosarcoma HOS; in [3] (72 hours); in series [4]; in [5] (72 hours)) was more than 100 µM each time.

With `OCC1OC(n2cnc3c(NCc4cc(F)ccc4O)nc(Cl)nc32)C(O)C1O` (centres unmarked) [Compound 30], in the series on β-adrenergic receptors, the “Effect (modulation of isoproterenol-induced cAMP synthesis)” value is recorded as “inhibition”. Moreover, the IC50 in the series on β-adrenergic receptors was 15.7 ± 4 µM. Moreover, the GI50 in [1] (Homo sapiens, HL-60, 72 hours) was more than 100 µM; in series [2] (Homo sapiens, G-361, 72 hours) it was more than 100 µM; in the series on human osteosarcoma HOS (Homo sapiens) it was more than 100 µM; in series [3] (Homo sapiens, K562, 72 hours), more than 100 µM; in [4] (Homo sapiens) it was more than 100 µM; in [5] (Homo sapiens, MCF7, 72 hours) it was more than 100 µM. Further, in [6] (increase of fresh callus weight after four weeks, tested 10^−8 M to 10^−4 M), the “concentration with highest activity” value was 10^−6 mol · l^−1. Besides, the “activity (%) [10^−5 mol · l^−1 C = 100%]” value in series [6] (relative activity at the concentration with highest activity, kinetin riboside at 10^−5 mol/l = 100%) is on record as 108.6 (±3) %.

For the molecule `COc1cccc(CNc2nc(S)nc3c2ncn3[C@@H]2O[C@H](CO)[C@@H](O)[C@H]2O)c1O` [Compound 71, 2-Mercapto-6-(2-hydroxy-3-methoxybenzylamino)purine riboside], in series [7], the solubility result is recorded as “soluble in EtOH”.

For `COc1cccc(CNc2nc(SC)nc3c2ncn3[C@@H]2O[C@H](CO)[C@@H](O)[C@H]2O)c1O` [Compound 87, 2-Methylmercapto-6-(2-hydroxy-3-methoxybenzylamino)purine riboside], the solubility result in series [7] is “very soluble in methanol and water”.
